The subject of the assay is Male Wistar rats. The assay can be described thus: Inhibition of hind leg scratching behaviour induced in rats by a pruritogenic agent (5-methoxytryptamine hydrochloride). In kind it is in vivo, rat. As to conditions: test compound by subcutaneous injection in aqueous micelle formulation; pruritogen 5-methoxytryptamine hydrochloride 4 mg/3 mL/kg s.c.; hindleg scratching score totalled after 25 minutes vs control group. How it is done: The compounds of the invention are evaluated for their activity as antipruritic agents by measuring their ability to inhibit the hind leg scratching behaviour induced in rats by the administration of a known pruritogenic agent. These studies are based on the procedure described by Berendsen and Broekkamp in the European Journal of Pharmacology, 1991, 194, 201. The test is performed as follows:
Male Wistar rats (approximately 150 g body weight) are challenged with a pruritogen by subcutaneous injection of 5-methoxytryptamine hydrochloride (4 mg/3 mL/kg) dissolved in physiological saline into the scruff of the neck. At this dose a constant and quantifiable hindleg scratching response lasting up to 90 minutes is obtained.
The test compound is administered to the test animals by subcutaneous injection in an aqueous micelle formulation. The test compound is prepared in the following manner. The compound is dissolved in a vehicle (composition v/v %: glycerol formal, 24; tween 80, 17; benzyl alcohol, 1.5 and purified water to 100) then seven parts purified water is added to three parts of the above vehicle to give the aqueous micelle formulation. […]
After the pruritogen challenge has been administered, hindleg scratching is scored for each animal by recording the presence or absence of scratching during each 30 second interval as 1 or 0 scored respectively. […]

Turning to `CCCCCCN1CC[C@@](C)(c2ccc(NC(C)=O)c(O)c2)[C@H](C)C1` (racemic) [Example 8, (±)-N-Hexyl-trans-3,4-dimethyl-4-(4-acetylamino-3-hydroxyphenyl)piperidine], the anti-pruritic activity result is “display anti-pruritic activity”.

Source of the values: US6479516B1, “4-arylpiperidine derivatives for the treatment of pruritus” (Pfizer Inc, priority 1999, dated 2002).
